“Also recorded” adds a separate entry of the source. Where two headings read alike, the source gives them in different places.
Assays:
E. coli EF-G = system: T1, E. coli EF-G; format: biochemical; settings: up to 1 mM
T1 construct: made in house
Protocol: (§1) Thin layer chromatography (TLC) analysis of nucleotide mixtures
Both EF-G GTPase reaction and ppGpp synthesis by RelA were followed by TLC analysis followed by scintillation counting according to Mechold and colleagues, with modifications1. Time points from the reaction mixtures (5 μl, see below for details) were quenched by addition 4 μl 70% formic acid supplemented with a cold nucleotide standard used for UV-shadowing (10 mM GDP and 10 mM GTP) and spotted on PEI-TLC plates (Macherey-Nagel). TLC was run in buffer, plates dried, cut into sections guided by UV-shadowing and 3H radioactivity was quantified by scintillation counting in Optisafe-3 (Fisher) scintillation cocktail on Perkin Elmer Tricarb 2810TR counter. Conversion of substrate to product was quantified as described in Shyp et al. (2012)2. […]
GTPase assays with E. coli EF-G
The reaction mixture contained 0.5 μM 70S, 0.1 μM EF-G, in HEPES:Polymix (25 mM Hepes 7.5/ 1 mM DTT / 5 mM Mg2+) pre-incubated for 2 minutes at 37°C prior to addition of 300 μM [3H]GTP substrate (Hartman), after which time points (5 μl) taken, quenched with formic acid and analyzed by TLC (see above). […]

E. coli RelA = target: T2, E. coli RelA (Escherichia coli, UniProt P0AG20); experiment: Inhibition of [3H]GDP to [3H]ppGpp conversion by E. coli RelA activated by vacant 70S ribosomes and 100 μM ppGpp; format: biochemical; settings: for IC50: 30 nM RelA, 0.5 μM vacant 70S, 100 μM ppGpp; for nHill (Hill coefficient of the titration fit): Supplementary Table 1, 4-parameter logistic model
T2 construct: made in house
T2 sequence (P0AG20 whole entry): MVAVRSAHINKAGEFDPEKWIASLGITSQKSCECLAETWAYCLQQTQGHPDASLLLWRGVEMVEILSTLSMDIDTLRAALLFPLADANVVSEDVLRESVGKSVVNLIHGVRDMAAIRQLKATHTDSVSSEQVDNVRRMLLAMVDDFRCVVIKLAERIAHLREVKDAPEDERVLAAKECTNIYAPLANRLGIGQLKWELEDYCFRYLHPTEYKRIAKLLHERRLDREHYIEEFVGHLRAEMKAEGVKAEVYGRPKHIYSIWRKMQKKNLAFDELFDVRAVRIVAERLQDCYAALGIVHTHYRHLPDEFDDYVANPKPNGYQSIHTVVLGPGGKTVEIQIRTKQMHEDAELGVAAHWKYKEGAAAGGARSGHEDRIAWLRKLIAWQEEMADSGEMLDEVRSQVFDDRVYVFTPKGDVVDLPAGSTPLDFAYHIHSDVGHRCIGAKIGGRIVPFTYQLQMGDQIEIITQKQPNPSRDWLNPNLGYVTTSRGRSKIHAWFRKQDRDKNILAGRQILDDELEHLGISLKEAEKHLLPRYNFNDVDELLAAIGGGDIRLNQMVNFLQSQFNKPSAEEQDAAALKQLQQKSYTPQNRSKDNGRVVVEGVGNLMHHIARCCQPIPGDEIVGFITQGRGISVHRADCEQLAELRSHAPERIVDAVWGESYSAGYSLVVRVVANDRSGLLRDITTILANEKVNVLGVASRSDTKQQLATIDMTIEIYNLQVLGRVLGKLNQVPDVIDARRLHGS
Protocol: For the initial characterization of compounds, we followed the inhibition of [^3H] GDP conversion to [^3H] ppGpp catalyzed by E. coli RelA in a simplified system in which RelA’s activity was induced by vacant 70S ribosomes and 100 μM of ppGpp[15]. Unlabeled ppGpp was added to reaction mixtures in order to linearize the kinetics of [^3H] ppGpp synthesis due to an activating effect on the RelA enzyme. We used a targeted library of 69 nucleotides belonging to several structural classes: ‘true’ ppGpp analogues; Relacin and its derivatives; pyrrolidine, azetidine, piperidine and acyclic phosphonates. Chemical structures of tested compounds and titrations in the RelA:70S:ppGpp system are presented in Supplementary Table 1.
Detailed description of experimental procedures can be found in Supplementary Text. Biochemical assays utilize in vitro translation[58] and stringent response[15] systems from E. coli purified components. Experiments were performed in HEPES:Polymix[58] buffer with either 5 (for enzymatically assembled initiation complexes) or 15 mM (for vacant 70 S, as well as non-enzymatically assembled programmed ribosomes) Mg^2+. Expression and purification of E. faecalis RelQ was performed as per Gaca (2015) and colleagues. GTPase and ppGpp synthesis were followed using TLC separation and radiochemical detection of ^3H-labelled nucleotides. Multiple round in vitro transcription assays were performed as per Bernardo et al.[49] with minor modifications. Inhibition efficiency (IC50) was calculated using 4-parameter logistic model (Hill equation) as per Sebaugh[60].
as §1
Both EF-G GTPase reaction and ppGpp synthesis by RelA were followed by TLC analysis followed by scintillation counting according to Mechold and colleagues, with modifications1. Time points from the reaction mixtures (5 μl, see below for details) were quenched by addition 4 μl 70% formic acid supplemented with a cold nucleotide standard used for UV-shadowing (10 mM GDP and 10 mM GTP) and spotted on PEI-TLC plates (Macherey-Nagel). TLC was run in buffer, plates dried, cut into sections guided by UV-shadowing and 3H radioactivity was quantified by scintillation counting in Optisafe-3 (Fisher) scintillation cocktail on Perkin Elmer Tricarb 2810TR counter. Conversion of substrate to product was quantified as described in Shyp et al. (2012)2.
Enzymatic assays with E. coli RelA
Screening: all experiments were performed in HEPES:Polymix, Mg2+ of 5 mM, 37 […]
μM ppGpp was pre-incubated at 37° C for 2 min and then reaction started by addition of 1 mM ATP, time points (5 μl) taken, quenched with formic acid and analyzed by TLC. Inhibition efficiency (IC50) was calculated using 4-parameter logistic model (Hill equation) as per Sebaugh (2011)3. […]

ΔywaCΔyjbM B. subtilis = experiment: Growth of ΔywaCΔyjbM B. subtilis in valine drop-out S7 medium (functional test for Rel inhibition); format: cell-based, Bacillus subtilis; settings: up to 1 mM (0 to 1000 µM)
Source text: Finally, we tested the three of our most promising inhibitors (DR-4250, DR-M014 and DR-5163) for RSH inhibition in bacterial culture. For this we used the Gram-positive bacterium B. subtilis due to its better uptake of compounds as compared to Gram-negative species such as E. coli[50]. The functional test for RSH inhibition relied on the auxotrophy of (p)ppGpp-deficient (ppGpp^0) B. subtilis for methionine and branched-chain amino acids valine, leucine and isoleucine. The B. subtilis RSH repertoire consists of one multi-domain ribosome-associated enzyme Rel and two SAS, YwaC and YjbM[3][52]. Because the SAS RelQEf is refractory to inhibition by our test compounds (Supplementary Figure 2), we used a B. subtilis strain lacking SASs (ΔywaCΔyjbM), in which the sole source of (p)ppGpp is Rel[53]. Defined S7 medium[54] lacking valine supports the growth of ΔywaCΔyjbM B. subtilis, but not the ppGpp^0 stain (Supplementary Figure 5). […] This is indicative of the test compounds failing to inhibit Rel and thereby rendering the strain phenotypically ppGpp^0 (Supplementary Figure 5). A lack of cellular uptake is a likely explanation. […]
Growth assays with Bacillus subtilis BSB1 wild type strain
SAS deletion and ppGpp0 strain of B. subtilis5 were grown in S7 liquid medium6 except for amino acid requirements, which were met as described elsewhere 7. On 96-well plate, 90 µl of B subtilis starter culture was mixed with 10 µL of compound dilution (in 5 mM Tris pH 7.2) so that final OD600 was 0.025 (l = 1 cm).
Following incubation was without shaking at 37°C and growth was monitored with Tecan Infinite M200 at OD600 (raw OD600 values are reported). B. subtilis starter culture was prepared as follows. Late exponential phase cells in S7, with full set of amino acids, were diluted ≈10-fold in S7 lacking either valine or lysine so that, after addition of 8% DMSO, OD600 was 0.25. Next, cell suspensions were aliquoted, frozen in liquid nitrogen, and stored at -80°C. Just before the experiment, cells were thawed on ice and appropriate amount of media was […]
DywaC DyjbM BSB1 B. subtilis ppGpp0. BSB1 B. subtilis wild type strain as grown on S7 synthetic media8 drop-out media lacking valine which abolishes the growth of ppGpp0 (Drel DywaC DyjbM) strain due to valine auxotrophy (dashed line). […]
inhibit the Rel and render the strain ppGpp0.

[1] = 0.3 mM [3H]GDP, 1 mM ATP, read-out: IC50
[2] = 5 mM Mg2+, 37 °C, no unit beside the value, titration axis in mM, read-out: IC50 (Supplementary Table 1, example titration)

`Nc1nc2c(ncn2C2OC(COP(=O)(O)OCP(=O)(O)O)C(OP(=O)(O)OCP(=O)(O)O)C2O)c(=O)[nH]1` (centres unmarked) [DR-4250, Guanosine 3’,5’-di(phosphonomethoxyphosphate)] was tested, and the “Inhibitory effect on EF-G GTPase activity (in words)” value (E. coli EF-G) was “no inhibitory effect”, the IC50 (E. coli RelA; [1]) was 0.054 ± 0.003 mM and the IC50 (E. coli RelA; [2]) was 0.053 ± 0.003 mM. For the same compound, the “nHill (Hill coefficient of the titration fit)” value (E. coli RelA) was 2.74 ± 0.5 and the “Effect on growth of ΔywaCΔyjbM B. subtilis (in words)” value (ΔywaCΔyjbM B. subtilis) was “did not affect bacterial growth; also recorded: does not affect the growth”.
With `Nc1nc2c(ncn2C2CCN(C(=O)P(=O)(O)O)CC2)c(=O)[nH]1` [DR-M014] the “Inhibitory effect on EF-G GTPase activity (in words)” value (E. coli EF-G) was “no inhibitory effect”, the IC50 (E. coli RelA; [1]) was 0.121 ± 0.02 mM and the IC50 (E. coli RelA; [2]) was 0.12 ± 0.02 mM. The “nHill (Hill coefficient of the titration fit)” value (E. coli RelA) was 1.9 ± 0.5, the “Effect on growth of ΔywaCΔyjbM B. subtilis (in words)” value (ΔywaCΔyjbM B. subtilis) was “does not affect the growth” and the “Effect on growth of ΔywaCΔyjbM B. subtilis (in words)” value (ΔywaCΔyjbM B. subtilis; listed as DR-M013) was “did not affect bacterial growth”.

From article PMC5291098, “Molecular mutagenesis of ppGpp: turning a RelA activator into an inhibitor” (Scientific Reports, 2017)
